The values below come from paper PMC8250858, “A Systematic Study of the Stability, Safety, and Efficacy of the de novo Designed Antimicrobial Peptide PepD2 and Its Modified Derivatives Against Acinetobacter baumannii” (Frontiers in Microbiology, 2021).

Like-named read-outs stand apart in the source and are kept apart here.

The subject of one series is HEK293 cells. In kind it is cell-based, human. How it is done:
Cell viability assays were performed by using the CellTiter 96® AQueous Non-Radioactive Cell Proliferation Assay (Promega, United States), in which 3-(4,5-dimethylthiazol-2-yl)-5-(3-carboxymethoxyphenyl)-2-(4-sulfophenyl)-2H-tetrazolium salt (MTS) can be reduced to purple-colored formazan by intact cells. […] The test peptide was dissolved in water and filtered through a 0.2-μm filter. The peptide concentration was quantitated by the UV280 to make a 5,120 μg/mL stock solution and then serially diluted in serum-free DMEM. On the second day, the medium was replaced with 100 μL of serum-free DMEM containing different peptide concentrations and incubated for 1 or 24 h. Serum-free DMEM without peptide was used as a negative control and medium containing 1% Triton X-100 was used as a positive control. One milligram of MTS powder was dissolved in 0.5 mL of Dulbecco’s phosphate-buffered saline (DPBS). The MTS solution was mixed with one-twentieth of a phenazine methosulfate (PMS) solution ([…]). To each well, 20 μL of the MTS/PMS solution was added. After 3 h, the absorbance was measured with an Infinite M1000 pro (Tecan Austria GmbH, Austria) at a wavelength of 490 nm. Cell viability was calculated using the following equation. Cellviability=[(A-Ap)/(An-Ap)]×100% A is the UV490 of the peptide-treated sample An is the UV490 of the sample without peptide (negative control) Ap is the UV490 of the Triton-treated sample (positive control)

The subject of the next series is A. baumannii 17978. Description: Time-kill kinetics assay in MHB. Type of series: cell-based, Acinetobacter baumannii. To be noted: 37°C with shaking, 4 μg/mL for both peptides. How it is done: FIGURE 4 Time-kill kinetics assay. […] This experiment was performed in ex vivo whole rat blood at room temperature without shaking. A. baumannii (final concentration of 10^7 CFU/mL) was incubated with or without peptide (4 μg/mL) for 60 min. At the indicated time points, an aliquot of the sample was removed and diluted, and the remaining cell number was counted by plating on MHA plates. The data are expressed as the mean ± SD. […] A. baumannii (final concentration of 10^7 CFU/mL) was incubated with or without peptide at 37°C with shaking. The peptide concentration was 4 μg/mL for both peptides.

In series [1] the test system is A. baumannii (ATCC 17978). In kind it is cell-based, Acinetobacter baumannii. To be noted: ex vivo rat blood, 4 μg/mL of each peptide. The procedure: The time-kill kinetics measurement against A. baumannii (ATCC 17978) in blood was conducted following a protocol modified from the literature ([Nagarajan et al., 2019]). […] Then, 4 μL of the peptide stock solution to be tested (2,035 μg/mL in water) was added to make the final bacterial cell number 10^7 CFU/mL and the final peptide concentration 4 μg/mL (assigned as tube A). At 2, 4, 6, 8, 10, 20, 30, 40, 50, and 60 min, 100 μL of the bacteria/blood mixture was removed from tube A and mixed with 100 μL of sterilized 2 M NaCl/50% glycerol (twofold dilution, assigned as tube B). […] Ten microliters of the mixture from tube B were mixed with 990 μL of sterilized 1 M NaCl (200-fold dilution, assigned as tube C). Ten microliters of the mixture from tube C was mixed with 90 μL of sterilized 1 M NaCl (2,000-fold dilution, assigned as tube D). Finally, ten or one hundred microliters of solution from each tube was plated on an MHA plate and incubated at 37°C overnight to count the colony number. To test whether freezing in liquid nitrogen kills part of the bacteria, pepdD2 was tested with and without freezing. […] At 0 and 60 min, the bacterial number was measured as described above. […] At the indicated time points, an aliquot of the sample was removed and diluted, and the remaining cell number was counted by plating on MHA plates. The data are expressed as the mean ± SD. […]

Another series can be described thus: Hemolytic assay. To be noted: rat red blood cells, 256 μg/mL peptide, 37°C 45 min; read-out: Hemolysis (%) at 256 μg/mL. Type of series: cell-based, rat. The procedure: The blood cells were washed three times with PBS, where the volume of PBS was the same as that of the original blood, by gently turning the centrifuge tube upside down. After washing, ten microliters of blood cells were diluted 2,000-fold in PBS to count the cells. Finally, red blood cells were diluted to 5 × 10^8 cells/mL in PBS. Peptides were dissolved in water and filtered through a 0.2-μm filter to make a stock solution. The peptide concentration was quantitated by the UV280. The peptide solution was diluted in PBS to different concentrations (five times the tested concentrations). Twenty microliters of the peptide in PBS was mixed with 80 μL of red blood cell solution in a 96-well plate (V-bottom). The final peptide concentration was 16–256 μg/mL. In the positive control group, 20 μL of 5% Triton X-100 was added to the red blood cell solution for a final Triton X-100 concentration of 1%. For the negative control group, 20 μL of PBS solution was added. The 96-well plate was incubated at 37°C for 45 min. After centrifuging the 96-well plate at 1,500 × g for 5 min, 30 μL of the supernatant was mixed with 100 μL of deionized water in a 96-well plate (flat bottom). The concentration of heme in each well was measured by the UV405 using an Infinite M1000 pro (Tecan Austria GmbH, Austria). The hemolytic activity was calculated using the following formula. Hemolyticactivity=[(F-F0)/(Ft-F0)]×100% F is the UV405 of the peptide-treated sample F0 is the UV405 of the sample without peptide (negative control) Ft is the UV405 of the Triton-treated sample (positive control)

The nature of a further series: in vitro. In kind it is in vitro ADME, rat. To be noted: rat, plasma, rat plasma, room temperature. The procedure:
EDTA-treated rat whole blood was centrifuged at 4°C and 840 × g for 5 min, and then the blood cells were removed ([[…] et al., 2019]). The supernatant was placed in an Eppendorf tube and centrifuged at 4°C and 13,000 rpm for 10 min to remove lipids (white precipitate). The supernatant was filtered through a 0.2-μm filter. The peptide was dissolved in water and filtered through a 0.2-μm filter. The peptide concentration was quantified by the UV280 to make a 1 mg/mL stock solution. […] At the indicated time, the peptide was analyzed by HPLC with a C18 column using a linear gradient of 20-65% B over 15 min. Solution A: 5% acetonitrile plus 0.1% trifluoroacetic acid in water; solution B: 0.1% trifluoroacetic acid in acetonitrile.

As a reminder, the half-life is the time needed for the level to fall by half in the phase considered. Low values mean rapid decline, high ones slow decline. Regarding Ac-WKKIKKIIKKIKKI-NH2 [pepI2], the “HEK293 IC50” value with HEK293 cells (1 h) came to 68.5 µg/mL; in the series on HEK293 cells (24 h), 66.8 µg/mL. The results for the “Killing rate compared” value (with A. baumannii 17978; in series [1]) were “killed A. baumannii faster than colistin sulfate” and “killed bacteria faster than pepdD2”, respectively. Also, in “Hemolytic assay”, the hemolysis at 45 min, 256 μg/mL was determined as 0.27%. In “in vitro”, this substance gave a half-life at 0.6 mg/mL of 11.2 h.
